Measured values reported in patent US7645802B2 (Biovail Laboratories International SRL., priority 2005, dated 2010).
Structures can show the parent of a compound that is named as a salt. Where two headings read alike, the source gives them in different places. Marks after values point to notes of the source that are not given here.

Assays:
[1] = cited from earlier work
[2] = Moisture content and pH of aqueous solutions of bupropion salts; type: physicochemical
[3] = moisture content by KF and pH (aq. 0.5%) of bupropion salts; type: physicochemical
Procedure: The eight salts were first evaluated by HPLC, KF, pH and DSC for purity, water content, aqueous pH and possible polymorphs.
(§1) The salts were analyzed by DSC (at 10° C./min from 30° C. up to 400° C.) and the pH (aq. 0.5%), and the moisture content by KF were also measured. The TGA was performed on the HCl, maleate, tosylate and HBr salts.

TGA of bupropion salts = type: physicochemical; settings: for residue (TGA): at 400° C.; for weight lost (TGA): from room temperature to 100° C.
Procedure: 2-5 mg of each salt was placed in an aluminium pan and covered with its lid. DSC was run for each sample at the rate of 10 degrees C./min (for HBr salt, different rates were used to investigate for polymorphs) from 30 degrees C. to 400 degrees C. TGA was also used for each of the HBr, HCl, maleate and tosylate salts.
as §1

[4] = forced degradation stability study of bupropion salts in vials, 40 degrees C./75% RH, HPLC assay and impurities
[5] = system: chemically-induced seizures (induced by pentylenetetrazole) in mice; settings: cited from earlier work
[6] = stability of polymorphic forms I, II, III by PXRD under ICH conditions; type: physicochemical; settings: hydrobromide
Procedure: It is well known that organic molecules can crystallize into solid forms. Moreover the same organic compound may assume different crystalline arrangements in solid form, depending on the conditions under which the crystal product is formed. This phenomenon is commonly known as polymorphism. A study was undertaken to explore the polymorphic forms of bupropion hydrobromide. The crystal forms of the products obtained in this study were determined by powder X-ray diffraction (PXRD). A RIGAKU miniflex instrument (Radiation Cu Koc, generator 30 KV, filter Ni) was used to obtain the PXRD data.
The three polymorphic forms were subjected to stability testing. Samples of the polymorphic forms were subjected to ICH conditions (40° C., 75% R.H.) and PXRD data was obtained at 3 months and 6 months. […] Samples of the polymorphic forms II and III were tested after 1 month under the same accelerated stability conditions.
Samples of bupropion HBr form I were subjected to the conditions for the accelerated stability study as described in Example 10 and the shelf life stability study as described in Example 11.
10 g of bupropion HBr form I were dissolved in a mixture of 170 ml of acetone and 7 ml of water. The mixture was brought to reflux with dissolution of the solid. The solution was then cooled to room temperature. After one night the precipitate formed was filtered and dried at 40° C. under vacuum (30 mmHg) for 12 hours. 2.4 g of bupropion HBr form II were obtained. […] The crystalline form was checked after maintaining the product under these conditions for 1 month.
The mixture was brought to reflux obtaining complete dissolution of the solid. The solution was then cooled to room temperature without stirring and left in these conditions for 18 hours. The resulting crystalline solid was then filtered and dried under vacuum (30 mmHg) at 50° C. for 4 hours. 11.2 g of bupropion HBr form III were obtained. A sample of the product was prepared for stability testing by sealing the product in polyethylene bags, which in turn were placed in aluminium bags containing silica and sealed, and placed in the stability chamber in ICH conditions (40° C./75% R.H.). The crystalline form was checked after maintaining the product in these conditions for 1 month.

[7] = Mono- and Diglyceride Surfactants (Table 89)
[8] = Lower Alcohol Fatty Acid Ester Surfactants (Table 97)
[9] = Sterol and Sterol Derivative Surfactants (Table 90)
[10] = Polyethylene Glycol Alkyl Ethers (Table 92)
[11] = Sugar Ester Surfactants (Table 93)
[12] = after re-crystallization in acetonitrile/hexane or acetonitrile/EtOAc
[13] = Sorbitan Fatty Acid Ester Surfactants (Table 96)
[14] = After re crystallization (R&D), tested after 1 day
[15] = ICH conditions 40° C./75% R.H., 1 month

## CCCCCCCCCCCCOS(=O)(=O)[O-].[Na+] [Sodium lauryl sulfate (dodecyl)]
[1]; Ionic Surfactants (Table 98)
  HLB: 40

## CC(NC(C)(C)C)C(=O)c1cccc(Cl)c1.O=C(O)/C=C\C(=O)O (centres unmarked) [Bup-Maleate]
[2]; Original (Initial APIs)
  moisture content KF: 0.10%
  pH (aq. 0.5%): 4.29

## Bupropion maleate
[3]; salt as received
  moisture content KF: 0.10%
  pH of the aqueous solution of 0.5%: 4.29
TGA of bupropion salts
  thermally stable to at least (TGA): at least 150 °C
  residue (TGA): minimal residues
  weight lost (TGA): 1.3%
[4]
  In IPA/EtOH, 3-CBZ: order of impurity content: maleate > HBr > HCl > Fumarate
  In IPA/EtOH, 852U77: order of impurity content: fumarate > HBr ≈HCl ≈maleate ≈tosylate
  In IPA/EtOH, Total imp.: order of impurity content: fumarate > maleate > HBr > HCl > tosylate
  In water, 3-CBZ: order of impurity content: HCl > HBr≈maleate≈fumarate
  In water, 852U77: order of impurity content: fumarate > HBr > maleate > HCl
  In water, Total imp.: order of impurity content: fumarate > HBr > HCl > tosylate > maleate

## [Br-].[Na+] [sodium bromide]
[5]
  ED50 / therapeutic dose level against pentylenetetrazole-induced seizures: 910 mg/kg

## CC(=O)OCC(O)CO (centres unmarked) [Glyceryl acetate]
[1]; [7]
  HLB: <10

## CCCCCCCC/C=C\CCCCCCCC(=O)OCC [Ethyl oleate]
[1]; [8]
  HLB: <10

## Distearin
[1]; [7]
  HLB: <10

## PEG-20 soya sterol
[1]; [9]
  HLB: <10

## CCCCCCCC(=O)OCC(O)CO (centres unmarked) [Monocaprylin]
[1]; [7]
  HLB: <10

## PEG-4 lauryl ether
[1]; [10]
  HLB: 9.7

## PEG-25 phyto sterol
[1]; [9]
  HLB: >10

## PEG-5 soya sterol
[1]; [9]
  HLB: <10

## Bupropion Fumarate
[3]; salt as received
  moisture content KF: 0.09%
  pH of the aqueous solution of 0.5%: 3.84
[4]
  In IPA/EtOH, 3-CBZ: order of impurity content: maleate > HBr > HCl > Fumarate
  In IPA/EtOH, 852U77: order of impurity content: fumarate > HBr ≈HCl ≈maleate ≈tosylate
  In IPA/EtOH, Total imp.: order of impurity content: fumarate > maleate > HBr > HCl > tosylate
  In water, 3-CBZ: order of impurity content: HCl > HBr≈maleate≈fumarate
  In water, 852U77: order of impurity content: fumarate > HBr > maleate > HCl
  In water, Total imp.: order of impurity content: fumarate > HBr > HCl > tosylate > maleate

## PEG-5 oleyl ether
[1]; [10]
  HLB: <10

## CCCCC/C=C\C/C=C\CCCCCCCC(=O)OCC(O)CO (centres unmarked) [Glycerol monolinoleate]
[1]; [7]
  HLB: 3-4

## Phytosterol
[1]; [9]
  HLB: <10

## Caprylic/capric glycerides
[1]; [7]
  HLB: <10

## CCCCCCCCCCCC(=O)OCC(O)CO (centres unmarked) [Monolaurin]
[1]; [7]
  HLB: <10

## CCCCCC(=O)OCC(O)CO (centres unmarked) [Monocaproin (C6)]
[1]; [7]
  HLB: <10

## Sucrose dipalmitate
[1]; [11]
  HLB: 7.4

## Bupropion tosylate
[3]; [12]
  moisture content KF: 0.23%
  pH: 5.88
[3]; re-crystallized sample retested after two months
  moisture content KF: 0.18%
[3]; salt as received
  moisture content KF: 1.71%
  pH of the aqueous solution of 0.5%: 5.56
TGA of bupropion salts
  residue (TGA): 10.3%
  weight lost (TGA): 1.3%
[4]
  In IPA/EtOH, 852U77: order of impurity content: fumarate > HBr ≈HCl ≈maleate ≈tosylate
  In IPA/EtOH, Total imp.: order of impurity content: fumarate > maleate > HBr > HCl > tosylate
  In water, Total imp.: order of impurity content: fumarate > HBr > HCl > tosylate > maleate

## Sorbitan sesquistearate
[1]; [13]
  HLB: 4.2

## CCCCCCCCCCCC(=O)OCC(O)CO (centres unmarked) [Glyceryl monolaurate]
[1]; [7]
  HLB: 6.8

## CCCCCCCCCCCCCC(=O)OCC(O)CO (centres unmarked) [Glyceryl monomyristate (C14)]
[1]; [7]
  HLB: 3-4

## Glycerol monooleate/linoleate
[1]; [7]
  HLB: 3-4

## Sorbitan trioleate
[1]; [13]
  HLB: 4.3

## CCCCCCCCCCCCCCCC(=O)OCC(O)CO (centres unmarked) [Glycerol monopalmitate]
[1]; [7]
  HLB: 4

## CCCCCCCCCCCCCCCCCC(=O)OCC(O)CO (centres unmarked) [Glycerol monostearate]
[1]; [7]
  HLB: 5-9

## PEG-10 soya sterol
[1]; [9]
  HLB: <10

## CCCCCC[C@@H](O)C/C=C\CCCCCCCC(=O)OCC(O)CO (some centres unmarked) [Glyceryl ricinoleate]
[1]; [7]
  HLB: 6

## Sucrose monopalmitate
[1]; [11]
  HLB: >10

## CCCCCCCCCCCCCC(=O)OC(C)C [Isopropyl myristate]
[1]; [8]
  HLB: <10

## CCCCCCCCCCCC(=O)OCC(O)CO (centres unmarked) [Glyceryl laurate]
[1]; [7]
  HLB: 4

## CCCCCCCC/C=C\CCCCCCCC(=O)[O-].[Na+] [Sodium oleate]
[1]; Ionic Surfactants (Table 98)
  HLB: 18

## CC(NC(C)(C)C)C(=O)c1cccc(Cl)c1 (centres unmarked) [bupropion HBr form I, bupropion hydrobromide]
[6]; 40° C., 75% R.H. (b1144 also 25° C./60% RH), 3 months and 6 months
  PXRD profile after storage (polymorph stability): gave the same results
[6]; 40° C., 75% R.H. (b1144 also 25° C./60% RH), 3 months and 6 months, listed as polymorphic form I
  PXRD profile after storage (polymorph stability): same PXRD profile

## CCCCC/C=C\C/C=C\CCCCCCCC(=O)OC(C)C [Isopropyl linoleate]
[1]; [8]
  HLB: <10

## CCCCCCCC/C=C/CCCCCCCC(=O)OCC(O)CO (centres unmarked) [Monoelaidin (C18:1)]
[1]; [7]
  HLB: <10

## Glyceryl mono-, dioleate
[1]; [7]
  HLB: <10

## CCCCC/C=C\C/C=C\CCCCCCCC(=O)OCC [Ethyl linoleate]
[1]; [8]
  HLB: <10

## PEG-30 soya sterol
[1]; [9]
  HLB: >10

## PEG-30 cholestanol
[1]; [9]
  HLB: >10

## CC(NC(C)(C)C)C(=O)c1cccc(Cl)c1.CC(NC(C)(C)C)C(=O)c1cccc(Cl)c1.O=C(O)C(O)C(O)C(=O)O (centres unmarked) [Bup-Tartrate neutral]
[2]; Original (Initial APIs)
  moisture content KF: 0.14%
  pH (aq. 0.5%): 3.62

## Glyceryl dioleate
[1]; [7]
  HLB: 3-4

## CC(NC(C)(C)C)C(=O)c1cccc(Cl)c1.Cc1ccc(S(=O)(=O)O)cc1 (centres unmarked) [Bup-Tosylate]
[2]; After re crystallization (R&D), tested after 2 Months
  moisture content KF: 0.18%
[2]; [14]
  moisture content KF: 023%
  pH (aq. 0.5%): 5.88
[2]; Original (Initial APIs)
  moisture content KF: 1.71* %
  pH (aq. 0.5%): 5.56

## Sorbitan monoisostearate
[1]; [13]
  HLB: 4.7

## CCCCCCCC(=O)OCC(O)CO (centres unmarked) [Glyceryl caprylate]
[1]; [7]
  HLB: 5-6

## Sorbitan monostearate
[1]; [13]
  HLB: 4.7

## CCCCCCCCCCCCCCCC(=O)OC[C@@H](O)[C@H]1OC[C@H](O)[C@H]1O [Sorbitan monopalmitate]
[1]; [13]
  HLB: 6.7

## Mono-and diacetylated monoglycerides
[1]; [7]
  HLB: 3.8-4

## Br.CC(NC(C)(C)C)C(=O)c1cccc(Cl)c1 (centres unmarked) [Bup-HBr]
[2]; Original (Initial APIs)
  moisture content KF: 0.00%

## PEG-3 oleyl ether
[1]; [10]
  HLB: <10

## PEG-24 cholesterol ether
[1]; [9]
  HLB: >10

## Glyceryl palmitic/stearic
[1]; [7]
  HLB: <10

## Sorbitan monooleate
[1]; [13]
  HLB: 4.3

## CC(NC(C)(C)C)C(=O)c1cccc(Cl)c1.O=C(O)CC(O)(CC(=O)O)C(=O)O (centres unmarked) [Bup-Citrate (I)]
[2]; Original (Initial APIs)
  moisture content KF: 0.23%
  pH (aq. 0.5%): 3.89

## CCCCCCCCCC(=O)OCC(O)CO (centres unmarked) [Monocaprin]
[1]; [7]
  HLB: <10

## CC(NC(C)(C)C)C(=O)c1cccc(Cl)c1.Cl (centres unmarked) [Bup-HCl]
[2]; Original (Initial APIs)
  moisture content KF: 0.0%
  pH (aq. 0.5%): 5.90

## CC(NC(C)(C)C)C(=O)c1cccc(Cl)c1 (centres unmarked) [bupropion HBr form II, bupropion hydrobromide]
[6]; [15]
  PXRD profile after storage (polymorph stability): still in form II
[6]; ICH conditions 40° C./75% R.H., 1 month, listed as Polymorphic form II
  PXRD profile after storage (polymorph stability): no change in the PXRD profile

## CCCCCCCC/C=C\CCCCCCCC(=O)OCC(O)CO (centres unmarked) [Glyceryl monooleate (C18:1)]
[1]; [7]
  HLB: 3-4

## Sucrose distearate
[1]; [11]
  HLB: 3

## CC(NC(C)(C)C)C(=O)c1cccc(Cl)c1 (centres unmarked) [bupropion HBr form III, bupropion hydrobromide]
[6]; [15]
  PXRD profile after storage (polymorph stability): not stable in this form under these conditions
[6]; ICH conditions 40° C./75% R.H., 1 month, listed as form III
  PXRD profile after storage (polymorph stability): conversion to form II
